Laboratory results reported in publication PMC12799524, “Putative new biomarkers for renal transporter-mediated drug-drug interactions: Characterization as substrates of organic cation transporter 2, multidrug and toxin extrusion protein 1, and other important drug transporters” (Drug Metabolism and Disposition, 2025).

Experiments:
human OATP1B3 = biological target: T1, human OATP1B3 (Homo sapiens, UniProt Q9NPD5); assay: Uptake assay in HEK-OATP1B3 vs HEK-VC cells; type: in vitro ADME
T1 construct: expressed in transfected cells; host or cells: HEK293 (HEK-OATP1B3)
T1 sequence (Q9NPD5 1-702): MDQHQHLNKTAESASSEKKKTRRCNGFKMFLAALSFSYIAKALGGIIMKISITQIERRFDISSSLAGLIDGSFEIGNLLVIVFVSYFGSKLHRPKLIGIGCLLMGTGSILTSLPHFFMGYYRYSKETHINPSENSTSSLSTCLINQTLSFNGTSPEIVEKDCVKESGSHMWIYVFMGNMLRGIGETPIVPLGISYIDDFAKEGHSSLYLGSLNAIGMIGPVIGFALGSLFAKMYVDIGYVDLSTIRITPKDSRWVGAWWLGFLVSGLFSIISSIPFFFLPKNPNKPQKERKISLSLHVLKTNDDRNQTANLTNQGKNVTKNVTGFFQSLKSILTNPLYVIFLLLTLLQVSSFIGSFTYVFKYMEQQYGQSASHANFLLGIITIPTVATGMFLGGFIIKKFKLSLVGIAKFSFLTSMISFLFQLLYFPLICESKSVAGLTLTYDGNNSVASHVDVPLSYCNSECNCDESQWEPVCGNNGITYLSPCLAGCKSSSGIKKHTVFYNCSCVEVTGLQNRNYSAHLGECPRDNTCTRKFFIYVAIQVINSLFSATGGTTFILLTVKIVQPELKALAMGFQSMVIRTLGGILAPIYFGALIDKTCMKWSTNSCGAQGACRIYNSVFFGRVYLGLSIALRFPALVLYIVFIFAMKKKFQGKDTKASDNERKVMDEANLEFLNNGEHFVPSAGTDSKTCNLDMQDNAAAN
Method: (§1) Transport experiments were performed 48 hours after seeding.

human OAT3 = biological target: T2, human OAT3 (Homo sapiens, UniProt Q8TCC7); assay: Uptake assay in HEK-OAT3 vs HEK-VC cells; conditions: for In Vitro OAT3 (substrate class): HEK cells
T2 sequence (Q8TCC7 1-542): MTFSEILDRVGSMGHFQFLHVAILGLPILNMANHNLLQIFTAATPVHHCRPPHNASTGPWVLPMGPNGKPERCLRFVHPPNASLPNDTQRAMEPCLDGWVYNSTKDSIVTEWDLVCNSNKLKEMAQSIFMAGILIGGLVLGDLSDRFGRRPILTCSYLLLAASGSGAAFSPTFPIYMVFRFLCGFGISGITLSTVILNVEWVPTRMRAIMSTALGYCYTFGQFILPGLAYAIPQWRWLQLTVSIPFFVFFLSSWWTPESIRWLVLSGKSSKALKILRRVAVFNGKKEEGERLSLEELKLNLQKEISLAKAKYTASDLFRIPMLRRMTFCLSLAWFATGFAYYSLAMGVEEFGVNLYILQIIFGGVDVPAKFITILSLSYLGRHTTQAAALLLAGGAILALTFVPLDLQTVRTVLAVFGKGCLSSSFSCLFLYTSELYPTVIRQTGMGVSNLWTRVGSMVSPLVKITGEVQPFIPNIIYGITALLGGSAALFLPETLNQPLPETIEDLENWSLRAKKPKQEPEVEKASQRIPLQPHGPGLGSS
Method: Using both plasmids, stably transfected HEK cells overexpressing human OAT1 or OAT3 were established as described.[24] HEK cell clones with the highest expression of the SLC22A6 or the SLC22A8 mRNA were selected by quantitative reverse-transcription polymerase chain reaction and functionally characterized by standardized uptake assays using PAH (30 μM) or E3S (1 μM) as prototypic substrates for OAT1 (HEK-OAT1) or OAT3 (HEK-OAT3), respectively, as described below.
Uptake assays into HEK cells stably overexpressing transport proteins and their respective VC were performed as previously described with minor modifications.[19] In brief, cells were seeded in poly-D-lysine–coated (0.1 mg/mL) 12-well plates with a density of 7 × 10^5 cells per well. Twenty-four hours after seeding, cells were induced with 10 mM sodium butyrate to enhance protein expression. Transport experiments were performed 48 hours after seeding. Cells were washed once with transport buffer at 37 °C. Afterward, cells were incubated with transport buffer containing (putative) substrates at the desired concentration at 37 °C for 5 minutes. Inhibition of OCT2/MATE1-mediated transport was investigated by adding 50 μM of cimetidine to the above-mentioned transport buffer containing putative substrates. A mixture of unlabeled and [^3H]-labeled substrate was used for control experiments. The buffer for the transport experiments contained 142 mM NaCl, 5 mM KCl, 1 mM K2HPO4, 1.2 mM MgSO4, 1.5 mM CaCl2, 5 mM glucose, and 12.5 mM HEPES. The pH value was set to 7.3, except for HEK-MATE1 cells and their respective VC, in which pH was set to 8.0.
At the end of the incubation period, cells were put on ice, the transport buffer was removed, and cells were rinsed thrice with ice-cold 0.9% NaCl in water. Then, cells were lysed with 700 μL of an ice-cold mixture of MeOH and water (80:20) containing the recovery standards [^2H5]-tryptophan (1 μg/mL) and [^2H3]-N8-acetylspermidine (0.1 μg/mL). Subsequently, lysates were analyzed with liquid chromatography coupled to tandem mass spectrometry (LC-MS).
Data are presented in percentage of respective controls (which were set to 100%) or in pmol × mg protein^–1 × min^–1 for concentration-dependent transport as mean ± SEM. All results were normalized to the mean protein concentrations of the cell lysates in the respective control experiments.

human OATP1B1 = biological target: T3, human OATP1B1 (Homo sapiens, UniProt Q9Y6L6); assay: Uptake assay in HEK-OATP1B1 vs HEK-VC cells; type: in vitro ADME
T3 construct: expressed in transfected cells; host or cells: HEK293 (HEK-OATP1B1)
T3 sequence (Q9Y6L6 1-691): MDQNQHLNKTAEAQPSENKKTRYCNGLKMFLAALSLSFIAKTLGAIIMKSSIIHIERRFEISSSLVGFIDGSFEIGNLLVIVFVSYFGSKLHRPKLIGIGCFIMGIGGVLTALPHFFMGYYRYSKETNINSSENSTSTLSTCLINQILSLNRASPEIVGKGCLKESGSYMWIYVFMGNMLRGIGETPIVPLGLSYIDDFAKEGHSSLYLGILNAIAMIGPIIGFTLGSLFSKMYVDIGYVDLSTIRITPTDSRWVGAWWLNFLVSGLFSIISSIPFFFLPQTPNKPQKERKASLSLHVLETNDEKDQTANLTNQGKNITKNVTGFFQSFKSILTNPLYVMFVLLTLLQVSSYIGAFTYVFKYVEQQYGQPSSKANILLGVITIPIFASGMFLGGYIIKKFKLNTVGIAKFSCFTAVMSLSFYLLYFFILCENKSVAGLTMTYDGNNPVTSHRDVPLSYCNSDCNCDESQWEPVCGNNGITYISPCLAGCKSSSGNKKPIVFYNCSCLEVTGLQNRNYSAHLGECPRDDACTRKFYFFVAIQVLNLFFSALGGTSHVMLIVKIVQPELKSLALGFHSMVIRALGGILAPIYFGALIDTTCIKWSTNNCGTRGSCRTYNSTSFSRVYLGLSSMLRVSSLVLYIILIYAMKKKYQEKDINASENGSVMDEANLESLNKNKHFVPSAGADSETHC
Method: as §1

Cn1cnc(CCN)c1 [1-Methylhistamine, 1-methylhistamine]
In Vitro OATP1B3 (substrate class) (human OATP1B3): - | In Vitro OAT3 (substrate class) (human OAT3): - | In Vitro OATP1B1 (substrate class) (human OATP1B1): -

C[N+](C)(C)CCCCC(=O)[O-] [5-Amino valeric acid betaine, 5-amino valeric acid betaine]
In Vitro OATP1B3 (substrate class) (human OATP1B3): 0 (significant uptake in HEK cells, but less than 300% of respective control cells or significant reduction of transcellular transport in Caco-2 cells, but reduction not below 50% of respective control without valspodar) | In Vitro OAT3 (substrate class) (human OAT3): - | In Vitro OATP1B1 (substrate class) (human OATP1B1): 0 (significant uptake in HEK cells, but less than 300% of respective control cells or significant reduction of transcellular transport in Caco-2 cells, but reduction not below 50% of respective control without valspodar)

NCCc1c[nH]c2ccc(O)cc12 [Serotonin, serotonin]
In Vitro OATP1B3 (substrate class) (human OATP1B3): - | Uptake ratio in HEK-OAT3 cells compared to HEK-VC cells (human OAT3; 100 μM substrate, 5 minutes): 186% | In Vitro OAT3 (substrate class) (human OAT3): 0 (significant uptake in HEK cells, but less than 300% of respective control cells or significant reduction of transcellular transport in Caco-2 cells, but reduction not below 50% of respective control without valspodar) | In Vitro OATP1B1 (substrate class) (human OATP1B1): -

NCCc1ccc(O)cc1 [Tyramine, tyramine]
In Vitro OATP1B3 (substrate class) (human OATP1B3): - | Uptake ratio in HEK-OAT3 cells compared to HEK-VC cells (human OAT3; 10 μM substrate, 5 minutes): 230% | Uptake ratio for OAT3 (HEK-OAT3 vs HEK-VC) (human OAT3; 5 minutes): above 2 fold | In Vitro OAT3 (substrate class) (human OAT3): 0 (significant uptake in HEK cells, but less than 300% of respective control cells or significant reduction of transcellular transport in Caco-2 cells, but reduction not below 50% of respective control without valspodar) | In Vitro OATP1B1 (substrate class) (human OATP1B1): 0 (significant uptake in HEK cells, but less than 300% of respective control cells or significant reduction of transcellular transport in Caco-2 cells, but reduction not below 50% of respective control without valspodar)
